Experimental data as given in patent US10532084B2, “Chondrocyte extracellular matrix-derived peptide” (EYEBIO KOREA, priority 2016, dated 2020).
Entries after “also recorded” stand apart in the source; their conditions may differ.

Experiments:
[1] = system: rabbit cornea burned with alkali; conditions: rabbit alkaline burn
Method: The rabbits were randomly divided into an alkaline burn group (n=5) and a peptide treated group (n=5). In the alkaline burn group, normal saline was administered 4 times daily and in the peptide-treated group, Hyp-[…] peptide of 10 mg/mL was administered 4 times daily, and the left eye was used as a control group.

[2] = system: conjunctival goblet cells; test: Distribution of conjunctival goblet cells (PAS staining), dry eye model; assay type: in vivo, NOD.B10.H2b mice
Method: (§1) NOD.B10.H2^b mice were purchased from Jackson Laboratory (Bar Harbor, Me., USA). Animal experiments were carried out in accordance with the guidelines approved by the University of Inje (No.; 2014-029) and ARVO regarding animal use for eye and vision research. NOD.B10.H2^b mice at 12-16 weeks old were exposed to 40-50% ambient humidity and ventilation using a fan for 18 hours a day as dry stress and subcutaneously injected with 0.5 mg/0.2 mL muscarinic receptor blocker. In addition, scopolamine hydrobromide (Sigma-Aldrich, St. Louis, Mo.) was injected alternately to the […] hips four times a day for 10 days at 9 am, […].
(§2) After 10 days of ocular dry stress, the scopolamine injection was stopped, and switched to a normal humidity and temperature environment and the dry stress was removed, 10 mg/ml Hyp-[…] and collagen were dissolved in normal saline to administer 5 μL each 5 times a day for 10 days, and normal saline and 0.1% HA were administered to the eyeball 5 times a day for 10 days. Three mice were used in each of the six experimental groups using both eyes of the mice and all experiments were repeated.
The distribution of conjunctival goblet cells according to eye drop in dry eye mice was observed.

corneal epithelial cell = test: Corneal epithelial cell detachment (H&E), dry eye model; assay type: in vivo, NOD.B10.H2b mice
Method: as §1, §2

[3] = Tear amount by phenol red-impregnated cotton threads, dry eye model; assay type: in vivo, NOD.B10.H2b mice
Method: Tear production was measured by a method reported using phenol red-impregnated cotton threads (Zone-Quick, Oasis, Glendora, Calif.) (Villareal A L, Farley W, Pflugfelder S C. Effect of topical ophthalmic epinastine and olopatadine on tear volume in mice. Eye Contact Lens. 2006; 32 (6): 272-276.). […] The measured lachrymal fluid in the millimeter was compared with a standard curve expressed as a cotton thread which was soaked with the expected tear amount of mouse of basic solution ([…] of 0.9% salt and 5 mL of 5 N NaOH) for 20 seconds.
The degree of tear generation was measured by phenol red-impregnated cotton threads.

[4] = system: choroidal neovascularization (CNV); test: Laser-induced choroidal neovascularization (CNV), lesion size by retina-choroid flat-mount; assay type: in vivo, C57BL/6 mice; conditions: mouse, laser irradiation
Method: C57BL/6 mice were purchased from Orient Bio and the animal experiments was carried out in accordance with the guidelines approved by the University of Inje (No, 2013-053) and ARVO regarding animal use for eye and vision studies. 6-week-old C57BL/6 mice were treated with diode green laser (532 nm, 150 mW, 0.1 sec, […], photocoagulator) to damage the retinal optic nerve area. […] The above experiment for each experiment group was performed using both eyes of five mice each. […]
The mouse was anesthetized and injected with 25 mg/ml of FITC-dextran in […] of retro-orbital. After 30 minutes, the mouse was euthanized and the eyeball was extracted and fixed with 10% formalin and then, the cornea and lens were removed and flat mounted on the cover glass. The neovasculature stained with FITC-dextran was observed by fluorescence microscopy (Leica) and the lesion size was measured by Image J program. […]

corneal surface = test: Corneal surface irregularity (smoothness) score, dry eye model; assay type: in vivo, NOD.B10.H2b mice
Method: as §1, §2
As for the curvature of the corneal surface, a reflected image of the white ring was obtained from an optical fiber ring illumination of a stereoscopic microscope (SZX7; Olympus) after anesthetizing the animal. Corneal smoothness was assessed by grading the irregularity of corneal epithelial cells reflected in the white ring of the digital image. Corneal irregularity severity score was calculated by dividing the reflection ring into quadrants and grading into 5 grades according to degree of irregularity. No irregularity is grade 0, irregularity of ¼ (quarter) is grade 1; irregularity of 2/4 (two-quarters) is grade 2; irregularity of ¾ (three-quarters) is grade 3; entire irregularity is grade 4; and […] and thus all the rings were confirmed.
The degree of corneal curvature in each experiment group was quantified to confirm the bendability of the corneal surface.

[5] = system: human vascular endothelial cells (HUVEC); test: Tubing assay (VEGF-induced tube formation); assay type: cell-based; conditions: 4 hours
Method: The antiangiogenic effect of hydroxy proline-GQDGLAGPK was confirmed by tubing assay using human vascular endothelial cells (HUVEC).
HUVEC cells were stained with calcein-AM and then dispensed on a Matrigel-coated 48-well plate, treated with collagen, CPI and CPII at concentrations together with 50 ng/ml of recombinant human VEGF, and after 4 hours of incubation at 37° C., tube formation was observed by fluorescence microscopy (Leica) and tube length was analyzed by Image lab software (Bio-Rad Laboratories).
Tubing assay using human vascular endothelial cells (HUVEC) was performed to confirm the anti-angiogenic effect of hydroxyl proline-GQDGLAGPK.

[6] = system: VEGF, VEGFR-1 (Flt-1), VEGR-2 (Flk-1) and Angiopoietin 2; conditions: mouse, 14 days after laser, 5 μg
Method: C57BL/6 mice were purchased from Orient Bio and the animal experiments was carried out in accordance with the guidelines approved by the University of Inje (No, 2013-053) and ARVO regarding animal use for eye and vision studies. 6-week-old C57BL/6 mice were treated with diode green laser (532 nm, 150 mW, 0.1 sec, […], photocoagulator) to damage the retinal optic nerve area. Immediately after laser irradiation, CP1, CPII and positive control group Avastin were dissolved in PBS and administered […] each per a day in the eyeball for 5 days. The above experiment for each experiment group was performed using both eyes of five mice each.

With “hydroxy proline-GQDGLAGPK [Hyp-GQDGLAGPK]” the “corneal neovascularization in H&E stained tissue” value ([1]; 10 days treatment) was “neovascularization was significantly improved”, the “histological changes of the cornea (epithelial proliferation, inflammatory cell invasion, edema, neovascularization)” value ([1]; 10 days treatment, H&E) was “showed an advanced improvement effect” and the corneal thickness ([1]; after 10 days of peptide treatment, normal 526.6, alkaline burn 960.6) was 550.0 μm. For the same substance, the “goblet cell recovery vs dry stress (DS 10D)” value ([2]; 10 days of treatment) was 2.3 times, the “goblet cells relative to CsA group” value ([2]; 10 days of treatment) was 1.2 times and the “goblet cells relative to DQS group” value ([2]; 10 days of treatment) was 1.5 times. For the same substance, the “goblet cells relative to HA group” value ([2]; 10 days of treatment) was 1.6 times, the “goblet cells relative to collagen group” value ([2]; 10 days of treatment) was 1.3 times and the “goblet cells relative to normal saline group” value ([2]; 10 days of treatment) was 2.6 times. The “distribution of goblet cells in the conjunctiva (in words)” value ([2]; 10 days of treatment after removal of dry stress) was “significantly increased”, the conjunctival goblet cells ([2]; 10 days of treatment after removal of dry stress, normal 14.38±0.44, DS 10D 6.02±0.29) was 13.9±0.83 /0.1 mm^2 and the “reduction of corneal epithelial cell detachment vs CsA group” value (corneal epithelial cell; 10 days of treatment) was 75%. The “reduction of corneal epithelial cell detachment vs DQS group” value (corneal epithelial cell; 10 days of treatment) was 60%, the “reduction of corneal epithelial cell detachment vs HA group” value (corneal epithelial cell; 10 days of treatment) was 77.8% and the “reduction of corneal epithelial cell detachment vs collagen group” value (corneal epithelial cell; 10 days of treatment) was 55.6%. The “reduction of corneal epithelial cell detachment vs dry stress (DS 10D)” value (corneal epithelial cell; 10 days of treatment) was 83.3%, the “reduction of corneal epithelial cell detachment vs normal saline group” value (corneal epithelial cell; 10 days of treatment) was 71.4% and the “corneal epithelial cell detachment” value (corneal epithelial cell; 10 days of treatment after removal of dry stress, DS 10D 2.29±0.57) was 0.38±0.17 /0.1 mm^2. For the same substance, the “tear amount increase vs DS 10D group” value ([3]; 10 days after treatment) was 7.9 times, the “tear amount relative to CsA treatment group” value ([3]; 10 days after treatment) was 1.7 times and the “tear amount relative to DQS treatment group” value ([3]; 10 days after treatment) was 1.4 times. For the same substance, the “tear amount relative to HA treatment group” value ([3]; 10 days after treatment) was 1.6 times, the “tear amount relative to collagen positive control group” value ([3]; 10 days after treatment) was “about 1.7 times” and the “tear amount relative to normal saline negative control group” value ([3]; 10 days after treatment) was “about 2.8 times”. For the same substance, the tear amount ([3]; 10 days of treatment after removal of dry stress, normal 0.22±0.01, DS 10D 0.03±0.01) was 0.23 ± 0.02 µL, the CNV lesions ([4]; 2 μg intraocular injection for 5 days, listed as CPII) was “reduced; also recorded: decreased” and the “CNV lesion size vs control group” value ([4]; 5 μg intraocularly for 5 consecutive days, 14 days after laser, FITC-dextran flat-mount) was “significantly decreased”. The “decrease of corneal surface curvature score vs CsA group” value (corneal surface; day 10) was 40%, the “decrease of corneal surface curvature score vs DQS group” value (corneal surface; day 10) was 33.3% and the “decrease of corneal surface curvature score vs HA group” value (corneal surface; day 10) was 33.3%. The “decrease of corneal surface curvature score vs collagen group” value (corneal surface; day 10) was 45.5%, the “decrease of corneal surface curvature score vs normal saline group” value (corneal surface; day 10) was 40% and the “decrease of corneal surface curvature score vs dry stress (DS 10D)” value (corneal surface; day 10 after removal of dry stress) was 53.8%. The “degree of curvature (irregularity score) of the corneal surface” value (corneal surface; day 10 after removal of dry stress, grades 0-5, normal 0.33±0.58, DS 10D 4.33±0.58) was 2.0±0 points, the “concentration dependence of tube formation inhibition” value ([5]; 50 ng/ml VEGF) was “concentration-dependent manner” and the “tube formation compared with the VEGF-untreated group” value ([5]; 50 ng/ml VEGF) was “decreased to almost same extent of angiogenesis of the VEGF-untreated group”. For the same substance, the “inhibition of tube formation (angiogenesis)” value ([5]; 50 ng/ml recombinant human VEGF, listed as CPII) was “significant inhibition of angiogenesis; also recorded: best anti-angiogenic efficacy; also recorded: best anti-angiogenic ability”, the “protein expression of VEGF, VEGFR-1, -2 and Angiopoietin 2 compared with Avastin” value [6] was “almost similar to that of Avastin” and the “protein expression of VEGF, VEGFR-1, VEGFR-2 and Angiopoietin 2 in retina and choroid” value ([6]; immunoblotting) was “markedly decreased”.
